Source: article PMC5362750, “Discovery of Potent, Selective, and Orally Bioavailable Small-Molecule Modulators of the Mediator Complex-Associated Kinases CDK8 and CDK19” (Journal of Medicinal Chemistry, 2016)
Values after ≈ are worked out from the molar mass of the structure shown. Read-outs that look alike come from different tables or passages of the source. Blank lines part the entries; values can stand above or below the molecule they belong to.

How the values were obtained:
[1] = Caco-2 Papp determination; details: human, Caco-2, pH 7.4
[2] = Mouse Clint determination; format: in vitro ADME
Protocol: (§1) Mouse, Rat, and Human Clint Determination
(§2) Microsomes (final concentration 0.5 mg/mL), 50 mM phosphate buffer pH 7.4, and compound (final concentration 1 μM) were added to the assay plate and allowed to preincubate for 5 min at 37 °C. The reaction was initiated by the addition of NADPH (final concentration 1.5 mM), and the plate was shaken at 800 rpm at 37 °C. After 0, 5, 10, 20, and 30 min aliquots were taken and the reaction was stopped using cold acetonitrile. The samples were centrifuged at 4000 rpm for 30 min at 4 °C and analyzed by LC–MS/MS. Four test compounds were pooled for analysis. The in vitro intrinsic clearance was calculated from the rate of compound disappearance.

[3] = human
[4] = Thermodynamic solubility determination; format: physicochemical
[5] = system: WNT-dependent signaling, 7dF3 cells (HEK293); experiment: 7dF3 luciferase reporter assay; format: cell-based, human
In vivo mouse PK = details: female, NMRI, plasma
[6] = Human Clint determination; format: in vitro ADME; details: pH 7.4; human microsomes
Protocol: as §1, §2

Rat Clint determination = format: in vitro ADME; details: pH 7.4; rat microsomes
[7] = Kinetic solubility determination; details: phosphate buffer, pH 7.4, Solubility Kinetic, free base

- Papp A→B at 2 h, 1 μM [1]: 1.3 ×10⁻⁶ cm/s
- more stable in mouse Clint experiments ([2]; compared to 25): at least 5 fold
SMILES: Nc1ncc(-c2ccc3c(N)n[nH]c3c2)c(N2CCC3(CCNC3=O)CC2)c1Cl [Compound 87]

- microsomal CLint at 1 μM [6]: 202 µL/min/mg
- microsomal CLint at 1 μM (Rat Clint determination): 139 µL/min/mg
- microsomal CLint at 1 μM ([2]; pH 7.4, mouse microsomes): 202 µL/min/mg
- solubility kinetic at 120 min [7]: 126 µM (≈ 55.3 µg/mL)
SMILES: CC(C)n1ncc2ccc(-c3cnc(N)c(Cl)c3N3CCC4(CCNC4=O)CC3)cc21 [Compound 111]

Continued, molecule first:

SMILES: Cn1cc(-c2ccc(-c3cncc(Cl)c3N3CCC4(CCNC4=O)CC3)cc2)cn1 [Compound 6]
- Papp A→B at 2 h, 1 μM [1]: 23.7 ×10⁻⁶ cm/s
- clearance prediction, iviv from hepatocytes (human): 8.83 mL/min/kg
- clearance prediction, simple allometry (human): 24.2 mL/min/kg
- F (human prediction): ∼70%
- Vd (human prediction): ∼0.85 L/kg
- t1/2 (human prediction): ∼0.70 h
- Cl (human prediction, mean of all methods): ∼0.88 L/h/kg
- clearance [3]: 14.7 mL/min/kg

SMILES: O=C1NCCC12CCN(c1c(Cl)cncc1-c1ccc3c(c1)CS(=O)(=O)N3)CC2 [Compound 22]
- Papp A→B at 2 h, 1 μM [1]: 4.9 ×10⁻⁶ cm/s
- improvement of thermodynamic aqueous solubility ([4]; compared to 6): 120 fold
- solubility at 24 h ([4]; phosphate buffer, pH 7.4, TFA salt, pH 7.4, 37 °C, read-out: Solubility Therm.): 759 µg/mL
- drop in cell-based potency ([5]; 7dF3, compared to 6): 23 fold
- Vd (In vivo mouse PK; iv, 0.2 mg/kg): 1.19 L/kg
- clearance (In vivo mouse PK; iv, 0.2 mg/kg, Cl, 0.2 mg/kg iv): 84 mL/min/kg
- bioavailability (In vivo mouse PK; po, 0.5 mg/kg): 11%

SMILES: CC1=NNC(=O)C12CCN(c1c(Cl)cncc1-c1ccc3c(c1)CS(=O)(=O)N3C)CC2 [Compound 49]
- Papp A→B at 2 h, 1 μM [1]: 40 ×10⁻⁶ cm/s
- efflux ratio at 2 h, 1 μM [1]: 4.9
- improvement in potency in the 7dF3 assay ([5]; compared to 23): 13 fold
